Patent US6277825A (priority 1999, dated 2001)
Several values for one entry are separate records, joined by “and”; a condition that tells them apart may be missing. Identical values can stand only once. Like-named read-outs stand apart in the source and are kept apart here. Where no end group is shown, it is not given here. [ ]: non-standard residue; d: D form. Gla = N[C@@H](CC(C(=O)O)C(=O)O)C(=O)O

Tests used:
[1] = system: Frings audiogenic seizure-susceptible mice; settings: mouse, in vivo
[2] = system: Frings audiogenic seizure susceptible mice; assay type: in vivo; settings: for ED50: mouse, in vivo
[3] = 37° C.; 50 μg/ml
[4] = system: CF No. 1 mice; settings: mouse, in vivo
[5] = system: young (<2 weeks old) mice; assay type: in vivo
[6] = system: young (<2 weeks old) mice; assay type: in vivo; remark: listed apart in the source
[7] = system: young (<2 weeks old) mice; assay type: in vivo; remark: listed apart in the source

Compound: NC(=O)OCC(COC(N)=O)c1ccccc1 [Felbamate, reference compound]
- TD50 (rotorod performance, minimal motor impairment) [1]: > 630 nmol
- animals protected ([2]; 30 min): 5/8 and 4/8

Compound: CC(C(O)c1ccc(O)cc1)N1CCC(Cc2ccccc2)CC1 (centres unmarked) [Ifenprodil, reference compound]
- P.I. (TD50/ED50) [1]: < 1
- TD50 [1]: < 25
- ED50 [2]: ~ 25 nmols

Compound: Nc1nnc(-c2cccc(Cl)c2Cl)c(N)n1 [Lamotrigine, reference compound]
- PI (TD50/ED50) [1]: > 2.0
- TD50 (rotorod performance, minimal motor impairment) [1]: > 290 nmol
- ED50 [2]: 146 nmol

Compound: CCC1(c2ccccc2)C(=O)NC(=O)NC1=O [Phenobarbitol, reference compound]
- PI (TD50/ED50) [1]: 0.5
- TD50 (rotorod performance, minimal motor impairment) [1]: 68.8 nmol

Compound: CC1(C)O[C@@H]2[C@@H](CO[C@@]3(COS(N)(=O)=O)OC(C)(C)O[C@@H]23)O1 [Topiramate, reference compound]
- TD50 (rotorod performance, minimal motor impairment) [1]: no marked
- ED50 [2]: > 150 nmol

Compound: CCCC(CCC)C(=O)O [Valproic Acid, reference compound]
- PI (TD50/ED50) [1]: 1.1-2.2
- ED50 [2]: 566 nmol

Compound: Conantokin T (GE[Gla][Gla]YQKML[Gla]NLR[Gla]AEVKKNA-NH2; N-terminus assumed; SMILES CSCC[C@H](NC(=O)[C@H](CCCCN)NC(=O)[C@H](CCC(N)=O)NC(=O)[C@H](Cc1ccc(O)cc1)NC(=O)[C@H](CC(C(=O)O)C(=O)O)NC(=O)[C@H](CC(C(=O)O)C(=O)O)NC(=O)[C@H](CCC(=O)O)NC(=O)CN)C(=O)N[C@@H](CC(C)C)C(=O)N[C@@H](CC(C(=O)O)C(=O)O)C(=O)N[C@@H](CC(N)=O)C(=O)N[C@@H](CC(C)C)C(=O)N[C@@H](CCCNC(=N)N)C(=O)N[C@@H](CC(C(=O)O)C(=O)O)C(=O)N[C@@H](C)C(=O)N[C@@H](CCC(=O)O)C(=O)N[C@H](C(=O)N[C@@H](CCCCN)C(=O)N[C@@H](CCCCN)C(=O)N[C@@H](CC(N)=O)C(=O)N[C@@H](C)C(N)=O)C(C)C) [Con T]
- stability in biological media [3]: stable in all biological media for up to 4 hours
- anticonvulsant activity [4]: anticonvulsant activity
- P.I. (TD50/ED50) [1]: 13
- TD50 [1]: 0.228 nmols
- behavioral toxicity (rotorod test) [1]: No animals exhibited behavioral toxicity
- Catalepsy Test, positive mice/tested ([5]; 30 min): 3/4
- Catalepsy Test, positive mice/tested ([5]; 60 min): 1/4
- Sleepy Test, positive mice/tested ([6]; 30 min): 4/4
- Sleepy Test, positive mice/tested ([6]; 60 min): 4/4
- #Protected/#Tested ([2]; 10 min): 0/9
- % Protected ([2]; 10 min): 0%
- #Protected/#Tested ([2]; 20 min): 1/2
- % Protected ([2]; 20 min): 50%
- #Protected/#Tested ([2]; 30 min): 2/6
- % Protected ([2]; 30 min): 33%
- #Protected/#Tested ([2]; 60 min): 4/6
- % Protected ([2]; 60 min): 67%
- #Protected/#Tested ([2]; 240 min): 1/6
- % Protected ([2]; 240 min): 17%
- Righting Reflex, mice that lost reflex/tested ([7]; 30 min): 2/4
- Righting Reflex, mice that lost reflex/tested ([7]; 60 min): 2/4
